# Results taken from patent US11260042B2, “Pharmaceutical combination for the treatment of cancer” (ABILITY PHARMACEUTICALS S.L., priority 2017, dated 2022).
# Key:
# HTB-812 cells = assay: Cell viability (MTT) of ABTL0812 in combination with paclitaxel, HTB-812; assay type: cell-based, human; conditions: HTB-812, 48 hours, 0.1% FBS, single agent
# Protocol: Methods: A549 cells were incubated with increasing concentrations of ABTL0812 (3-300 μM), paclitaxel (0.003-1 μM), or a combination of both using subIC50 fixed concentration of ABTL0812 and 0.003-1 μM paclitaxel for 72 hours in DMEM with 0.1% FBS. H157, H1957 and HTB-812 cells were incubated with increasing concentrations of paclitaxel (0.001-10 μM) alone and in combination with subIC50 fixed concentration of ABTL0812 for 48 hours in DMEM with 0.1% FBS. Cell viability was evaluated in all cases by MTT assay and IC50's were calculated for paclitaxel and the combination. The concentrations of the combinations for the different cell lines were:
# Finally, the Combination Index (CI), as described in the previous section, was calculated for the values of paclitaxel IC50.
# [1] = test system: MiaPaca2 (human pancreatic carcinoma); assay: Cell viability (MTT) of ABTL0812 alone or with gemcitabine in pancreatic cancer; assay type: cell-based
# Protocol: Methods: MiaPaca2 cells were seeded in 24-well plates together with gemcitabine (0.01-100 μM), ABTL812 (3-300 μM), or a combination of both (subIC50, i.e., 25 μM fixed concentration of ABTL0812 with 0.01-100 μM gemcitabine) and left in the incubator for 72h (0.5% FBS). Cell viability was studied by the MTT assay and several parameters were determined to evaluate a possible synergism. First the IC50 for each drug alone or the combination was calculated. Then, synergism (CI) was calculated as described above.
# [2] = test system: MDB-DA-231 (human triple negative breast cancer); assay: Cell viability (MTT) of ABTL0812 alone or with paclitaxel in breast cancer; assay type: cell-based
# Protocol: Methods: MDB-DA-231 cells were seeded in 24-well plates together with increasing concentration of paclitaxel (1-100 nM) in the presence of 5, 10 and 20 μM of ABTL0812 (all doses below to an IC25) for 48h (0.5% FBS). Cell viability was studied by the MTT assay and several parameters were determined to evaluate a possible synergism. First the IC50 for each drug alone or the combination was calculated.
# [3] = test system: H157 human squamous lung cancer xenograft; assay type: in vivo; conditions: day 20 after beginning of treatments; ABTL0812 120 mg/kg oral; end-point tumor volume >1000 mm^3 or welfare
# Protocol: Objective: Investigate survival rate for ABTL0812 alone and in combination with paclitaxel and carboplatin (P/C) with a Kaplan-Meier analysis in a human squamous NSCLC xenograft model Methods: Mice were injected with 5×10^6 H157 cells in one flank to induce tumor formation. […] The different conditions studied were vehicle, 120 mg/kg oral ABTL0812 daily, 15 mg/kg carboplatin+50 mg/kg paclitaxel by i.p. route and an additional group receiving the combination of these two regimens. […] Tumor volume was monitored 3 times a week.
# [4] = test system: EGI-1 human cholangiocarcinoma xenograft; assay: Human cholangiocarcinoma (EGI-1) xenograft, gemcitabine and cisplatin; assay type: in vivo, Nu/nu male mice; conditions: ABTL0812 120 mg/kg oral; gemcitabine 50 mg/kg and cisplatin 2 mg/kg i.p. once a week
# Protocol: Methods: EGI-1 cell line was routinely cultured in DMEM 10% FBS and cells in an exponential growth phase were harvested and counted for tumor inoculation.
# Treatment groups were: • Vehicle group (n=8): treated orally with 200 μl of water+5% glycerol four days a week and two injections i.p. of 100 μl of saline solution once a week • ABTL0812 (n=8): treated orally with 200 μl of 120 mg/kg of ABTL0812 resuspended in water+5% glycerol 5 times a week • Gemcitabine/cisplatin (n=8): treated with 100 μl of 50 mg/kg of gemcitabine administered i.p. and 100 μl of 2 mg/kg of cisplatin administered i.p. once a week • ABTL0812+gemcitabine/cisplatin (n=8): treated orally with 200 μl of 120 mg/kg of ABTL0812 four days a week and 100 μl of 50 mg/kg of gemcitabine administered i.p. and 100 μl of 2 mg/kg of cisplatin administered i.p. once a week
# [5] = assay type: in vivo
# Protocol: Methods: Forty-five female CD-1 mice were distributed by means of the body weight stratification method into nine experimental groups (A-I) (5 animals for group) that differed in the treatment or in the day on which the reference items (paclitaxel and carboplatin) were administered.
# The table below summarizes the treatment groups. Please note that the same administration schedule and doses were administered as in the previous efficacy studies.
# The safety assessment relied on observed mortality, local and systemic clinical signs, body weight and food consumption recorded throughout the whole study. In addition, clinical pathology determinations (biochemistry and hematology) were performed before sacrifice in all animals. At the end of the observation period (one day after the last administration), all surviving animals were sacrificed and subjected to a gross necropsy. Moreover, the safety assessment was also based on the weight of selected target organs collected at sacrifice.
smiles,measurement,setting,value
"CCCCC/C=C\C/C=C\CCCCCCC(O)C(=O)O (stereo not drawn) [ABTL0812, COOH—CHOH—(CH2)6—(CH═CH—CH2)2—(CH2)3—CH3]",IC50,HTB-812 cells,29 µM
same,cytotoxicity alone at the concentration chosen for the combination,"[1]; MiaPaca2, 25 μM ABTL0812",< 10%
same,IC50,"[1]; MiaPaca2, 72h, 0.5% FBS, MTT, single agent",49 µM
same,cytotoxicity alone at the concentration chosen for the combination,[2]; MDB-DA-231,< 10%
same,IC50,"[2]; MDB-DA-231, 48h, 0.5% FBS, MTT, single agent",29 µM
same,survival (Kaplan-Meier),[3],0%
same,tumor volume,[4],did not show tumor volume reduction compared to vehicle until the last day of treatment
same,Biochemistry Creat,"[5]; mouse, in vivo",9.18 µmol/L
same,Biochemistry Triglyc,"[5]; mouse, in vivo",0.94 mmol/L
same,Biochemistry Urea,"[5]; mouse, in vivo",3.66 mmol/L
same,Body Weight Gain D 8-11,"[5]; mouse, in vivo",0.138 g
same,Hematology PLT,"[5]; mouse, in vivo",1293 ×10^3/μL
same,Hematology RBC,"[5]; mouse, in vivo",9.57 ×10^6/μL
same,Hematology WBC,"[5]; mouse, in vivo",5.94 ×10^3/μL
same,mortality and tolerability,[5]; two-week administration,did not cause mortality and was well tolerated
